For 14 compounds, IC50 results are on record in ChEMBL document CHEMBL1955794, “β-Carboline alkaloids from the leaves of Trigonostemon lii Y.T. Chang” (Bioorg Med Chem Lett, 2012).

What all share (assay type): functional, cell-based
Test [1] deals with SW480. Put plainly: Cytotoxicity against human SW480 cells after 48 hrs by MTT assay. As to conditions: SW480, 48 h.
The subject of test [2] is MCF7. Put plainly: Cytotoxicity against human MCF7 cells after 48 hrs by MTT assay. As to conditions: MCF7, 48 h.
The subject of test [3] is A549. Briefly: Cytotoxicity against human A549 cells after 48 hrs by MTT assay. As to conditions: A549, 48 h.
Test [4] relates to SMMC-7721. Briefly: Cytotoxicity against human SMMC7721 cells after 48 hrs by MTT assay. As to conditions: SMMC-7721, 48 h.
Test [5] relates to HL-60. Briefly: Cytotoxicity against human HL60 cells after 48 hrs by MTT assay. As to conditions: HL-60, 48 h.

Regarding `COc1ccc2c3c([nH]c2c1)-c1nc2ccccc2c(=O)n1CC3`, the IC50 in test [1], in test [2], in test [3], in test [4] and in test [5] was greater than 40 µM in each case.
Consider `COc1ccc2c(=O)n3c(nc2c1)-c1[nH]c2ccccc2c1CC3`, for which the IC50 in test [1], in test [2], in test [3], in test [4] and in test [5] was greater than 40 µM in each case.
In the case of `O=C1NCCc2c1[nH]c1ccccc21`, the IC50 in test [1], in test [2], in test [3], in test [4] and in test [5] was greater than 40 µM each time.
As to `COc1ccc2c(c1)[nH]c1c(C(C)=O)nccc12` [ARENARINE C], the IC50 in test [1], in test [2], in test [3], in test [4] and in test [5] was greater than 40 µM each time.
Consider `COC(=O)c1nccc2c1[nH]c1cc(OC)ccc12` [HARMIC ACID METHYL ESTER], for which the IC50 in test [1], in test [2], in test [3], in test [4] and in test [5] was greater than 40 µM each time.
Regarding `COc1ccc2c(c1)[nH]c1c(C(=O)c3c[nH]c4ccccc34)nccc12` [TRIGONOSTEMINE A], the IC50 in test [1] turned out to be 4.86 µM; in test [2], 5.3 µM; in test [3], 23.9 µM; in test [4], 22.4 µM; in test [5], 13.4 µM.
The matching figures for `COc1ccc2c(C(=O)c3nccc4c3[nH]c3cc(OC)ccc34)c[nH]c2c1` [TRIGONOSTEMINE B]: 3.55 µM, 2.98 µM, 8.67 µM, 4.78 µM and greater than 40 µM.
The matching figures for `COc1ccc2c(c1)[nH]c1c(C(=O)c3c(O)[nH]c4ccccc34)nccc12` [TRIGONOSTEMINE C]: 17.2 µM, 16.1 µM, 18.5 µM, 16 µM and greater than 40 µM.
In the case of `COc1ccc2c(C(=O)c3nccc4c3[nH]c3ccccc34)c(O)[nH]c2c1` [TRIGONOSTEMINE D], the IC50 in test [1] was greater than 40 µM; in test [2] it was 13.8 µM; in test [3], greater than 40 µM; in test [4], greater than 40 µM; in test [5] it was greater than 40 µM.
In the case of `COc1ccc2c(c1)[nH]c1c(-c3ccnc4ccccc34)nc(O)cc12` [TRIGONOSTEMINE E], the IC50 in test [1] turned out to be 39.1 µM; in test [2] it was 14.4 µM; in test [3], 24.3 µM; in test [4], 23.5 µM; in test [5], 18.8 µM.
The matching figures for `COc1ccc2c(-c3nc(O)cc4c3[nH]c3ccccc34)ccnc2c1` [TRIGONOSTEMINE F]: greater than 40 µM, greater than 40 µM, greater than 40 µM, greater than 40 µM and greater than 40 µM.
The matching figures for `COc1ccc2c(c1)[nH]c1c(-c3ccnc4ccccc34)nccc12` [TRIGONOSTEMONINE C]: greater than 40 µM, greater than 40 µM, 23.1 µM, 15.5 µM and 13.4 µM.
Regarding `COc1ccc2c(-c3nccc4c3[nH]c3ccccc34)ccnc2c1` [TRIGONOSTEMONINE D], the IC50 in test [1], in test [2], in test [3], in test [4] and in test [5] was greater than 40 µM in each case.
Take `COc1ccc2c(C3=NCCc4c3[nH]c3ccccc43)ccnc2c1` [TRIGONOSTEMONINE E]: the IC50 in test [1], in test [2], in test [3], in test [4] and in test [5] was greater than 40 µM in each case.
